Our source for the IC50 values is ChEMBL document CHEMBL1145198, “Checkpoint kinase inhibitors: SAR and radioprotective properties of a series of 2-arylbenzimidazoles” (J Med Chem, 2005).

The target in this assay is Serine/threonine-protein kinase Chk2 (Homo sapiens, UniProt O96017). The assay can be described thus: Inhibition of recombinant human Chk2 kinase.

pIC50: −log10 of the molar value.

Chain of Serine/threonine-protein kinase Chk2 (O96017 whole entry): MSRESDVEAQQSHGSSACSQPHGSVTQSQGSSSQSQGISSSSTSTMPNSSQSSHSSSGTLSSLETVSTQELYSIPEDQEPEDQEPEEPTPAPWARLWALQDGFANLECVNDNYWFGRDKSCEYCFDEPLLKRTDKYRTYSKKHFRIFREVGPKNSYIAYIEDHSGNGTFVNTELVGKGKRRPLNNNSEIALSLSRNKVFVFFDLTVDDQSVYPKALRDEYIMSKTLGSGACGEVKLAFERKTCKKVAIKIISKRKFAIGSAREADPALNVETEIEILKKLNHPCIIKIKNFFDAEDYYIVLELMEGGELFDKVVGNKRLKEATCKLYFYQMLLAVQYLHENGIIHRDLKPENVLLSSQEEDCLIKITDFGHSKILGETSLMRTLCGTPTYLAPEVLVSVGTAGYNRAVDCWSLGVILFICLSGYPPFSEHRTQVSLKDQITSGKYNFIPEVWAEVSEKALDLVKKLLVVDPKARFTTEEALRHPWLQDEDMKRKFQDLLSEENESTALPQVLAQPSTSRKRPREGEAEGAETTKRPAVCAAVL

As a reminder, the pIC50 is −log10 of the IC50, conventionally taken in molar units. For `CN(C)C(=O)c1ccc2[nH]c(-c3ccc(Oc4ccccc4)cc3)nc2c1`, the pIC50 was under 5.00.

For `NC(=O)c1ccc2nc(-c3ccc(C(=O)Nc4ccc(Cl)c(Cl)c4)cc3)[nH]c2c1`, the negative logarithm of the IC50 (pIC50) is under 5.00.
